Results: PubChem BioAssay (NCI)
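These data come from cells grown in 96-well plates and exposed to compound for 48 hours at five concentrations. TGI: concentration producing complete growth inhibition.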

What was measured:
Experiment in all cases: inhibition of tumour cell growth, NCI panel, 48 h
[1] = test system: CCRF-CEM leukemia
[2] = test system: HCC-2998 colon
[3] = test system: OVCAR-5 ovarian
[4] = test system: MOLT-4 leukemia
[5] = test system: DMS 273 small cell lung
[6] = test system: HCT-15 colon
[7] = test system: LXFL 529 NSCLC
[8] = test system: SK-MEL-28 melanoma
[9] = test system: KM20L2 colon
[10] = test system: M14 melanoma
[11] = test system: NCI-H522 lung
[12] = test system: RPMI-8226 leukemia
[13] = test system: SNB-78 CNS
[14] = test system: A498 renal
[15] = test system: SK-MEL-5 melanoma
[16] = test system: SW-620 colon
[17] = test system: SR leukemia
[18] = test system: OVCAR-8 ovarian
[19] = test system: M19-MEL melanoma
[20] = test system: SK-OV-3 ovarian
[21] = test system: SF-295 CNS
[22] = test system: HOP-92 NSCLC
[23] = test system: SN12C renal
[24] = test system: HL-60(TB) leukemia
[25] = test system: OVCAR-4 ovarian
[26] = test system: UO-31 renal
[27] = test system: DMS 114 small cell lung
[28] = test system: NCI-H460 lung
[29] = test system: ACHN renal
[30] = test system: SF-268 CNS
[31] = test system: DLD-1 colon
[32] = test system: CAKI-1 renal
[33] = test system: UACC-62 melanoma
[34] = test system: HOP-18 NSCLC
[35] = test system: 786-0 renal
[36] = test system: HOP-62 NSCLC
[37] = test system: HCT-116 colon
[38] = test system: SNB-19 CNS
[39] = test system: LOX IMVI melanoma
[40] = test system: U251 CNS
[41] = test system: SF-539 CNS
[42] = test system: KM12 colon
[43] = test system: A549 NSCLC
[44] = test system: TK-10 renal
[45] = test system: MALME-3M melanoma
[46] = test system: RXF 393 renal
[47] = test system: OVCAR-3 ovarian
[48] = test system: SNB-75 CNS
[49] = test system: COLO 205 colon
[50] = test system: EKVX NSCLC
[51] = test system: UACC-257 melanoma
[52] = test system: HT29 colon
[53] = test system: IGROV1 ovarian

Measured: TGI

OC1/C(=C/c2ccccc2)CNC/C1=C\c1ccccc1 (stereo not drawn)
> 100 µM: all assays above
